The values below come from ChEMBL document CHEMBL5104178, “Nitroimidazopyrazinones with Oral Activity against Tuberculosis and Chagas Disease in Mouse Models of Infection” (J Med Chem, 2022).

Each structure is given as a SMILES string. Values after ≈ are worked out from the molar mass of the structure shown.

The nature of data set [1]: Solubility of compound in water by LC-UV analysis. The class given is physicochemical. The following applies: water; read-out: solubility.
Data set [2] in a line: Solubility of compound in PBS at 7.4 by LC-UV analysis. The class given is physicochemical. The following applies: pH 7.4.
The test system of data set [3] is Mycobacterium tuberculosis. As to the kind of experiment: Antimycobacterial activity against Mycobacterium tuberculosis H37Rv ATCC 27294 assessed as bacterial growth inhibition incubated for 5 days under normoxic condition by resazurin microtiter assay. The format is functional. As to conditions: H37Rv ATCC 27294, 120 h, time 5 day. (The colour change of resazurin is a common sign of viable cells or microbes.)

For data set [4], the system named is Mycobacterium tuberculosis. In words: Antimycobacterial activity against Mycobacterium tuberculosis H37Rv ATCC 27294 assessed as bacterial growth inhibition incubated for 5 days under hypoxic condition by resazurin microtiter assay. The format is functional. The following applies: H37Rv ATCC 27294, 120 h, time 5 day.
The subject of data set [5] is Mycobacterium tuberculosis. In words: Substrate activity at Mycobacterium tuberculosis Ddn expressed in Escherichia coli BL21 (DE3) assessed as oxidation of F420H2 by measuring Kcat by spectrophotometric analysis.
Data set [6] deals with Mycobacterium tuberculosis. As to the kind of experiment: Substrate activity at Mycobacterium tuberculosis Ddn expressed in Escherichia coli BL21 (DE3) assessed as oxidation of F420H2 by measuring Kcat/Km by spectrophotometric analysis.
Data set [7] relates to Mycobacterium tuberculosis. As to the kind of experiment: Antimycobacterial activity against Mycobacterium tuberculosis H37Ra ATCC 25177 assessed as bacterial growth inhibition incubated for 6 days under normoxic condition by resazurin microtiter assay. As to conditions: H37Ra ATCC 25177, 144 h, time 6 day. The class given is functional.
The subject of data set [8] is Mycolicibacterium smegmatis. In words: Antimycobacterial activity against Mycobacterium smegmatis mc2155 ATCC 700084 assessed as bacterial growth inhibition incubated for 24 hrs under normoxic condition by resazurin microtiter assay. The format is functional.
Data set [9] deals with Mycobacterium tuberculosis. In words: Substrate activity at Mycobacterium tuberculosis Ddn expressed in Escherichia coli BL21 (DE3) assessed as oxidation of F420H2 by measuring Km by spectrophotometric analysis.
The test system of another data set is Mycobacterium avium. In words: Antimycobacterial activity against Mycobacterium avium ATCC 25291 assessed as bacterial growth inhibition incubated for 6 days under normoxic condition by resazurin microtiter assay. The class given is functional. The following applies: ATCC 25291, 144 h, time 6 day.
Data set [10] concerns Mycobacterium tuberculosis. In words: Antimycobacterial activity against Mycobacterium tuberculosis H37Rv ATCC 27294 assessed as bacterial growth inhibition at 4 to 32 ug/ml incubated for 5 days under hypoxic condition by resazurin microtiter assay relative to control. The class given is functional. As to conditions: dose 4-32 µg/ml; time 5 day.
In data set [11] the test system is Mycobacterium tuberculosis. In words: Antimycobacterial activity against Mycobacterium tuberculosis H37Rv ATCC 27294 assessed as bacterial growth inhibition at 0.125 to 8 ug/ml incubated for 5 days under hypoxic condition by resazurin microtiter assay relative to control. The class given is functional. The following applies: dose 0.125-8 µg/ml; time 5 day; at 0.125 to 8 µg/mL.

For the compound `O=C1CCn2cc([N+](=O)[O-])nc2N1Cc1ccccc1`, the solubility (in general, how much of the substance goes into solution per volume) in data set [1] stood at 137 µM (≈ 37.3 µg/mL); in data set [2], 142 µM (≈ 38.7 µg/mL). Besides, the MIC in [3] and in [4] was greater than 32 µg/mL each time.
In the case of `Cc1nc(OCc2ccc(OC(F)(F)F)cc2)c2nc([N+](=O)[O-])cn2c1C`, in [5], the kcat (usually the maximal rate divided by the concentration of active sites) is 7 10^-4/s. The kcat/Km (usually the second-order rate constant that governs catalysis at low substrate concentration) in data set [6] was determined as 24 M⁻¹ s⁻¹. In addition, the MIC (in [7]; in data set [8]; in [3]; in the data set on Mycobacterium avium; in data set [4]) was greater than 32 µg/mL each time. In data set [9], the Km (as a rule, the substrate concentration at which the rate is half of its maximum) is 30 µM.
Turning to `O=c1c2nc([N+](=O)[O-])cn2ccn1Cc1cncc(-c2ccc(OC(F)(F)F)cc2)c1`, the turnover number (kcat) in data set [5] was 1.2 10^-2/s. For the same compound, in data set [6], the specificity constant (kcat/Km) was 4470 M⁻¹ s⁻¹. For the same compound, the Km in [9] is 2.6 µM. Further, in data set [10], the “inhibition (INH)” value is 82%.
As to `O=C(NCc1ccc(OC(F)(F)F)cc1)c1ncc([N+](=O)[O-])[nH]1`, in data set [5], the turnover number (kcat) was 2.1 10^-4/s. Besides, the specificity constant (kcat/Km) in data set [6] turned out to be 6.9 M⁻¹ s⁻¹. Moreover, the Km in data set [9] is 31 µM.
As to `O=c1c2nc([N+](=O)[O-])cn2ccn1Cc1cncc(-c2cccc(OC(F)(F)F)c2)c1`, the kcat in data set [5] was 1.4 10^-2/s. The catalytic efficiency (kcat/Km) in data set [6] turned out to be 3190 M⁻¹ s⁻¹. In [9], the Michaelis constant (Km) is 4.3 µM.
Consider `O=c1c2nc([N+](=O)[O-])cn2ccn1Cc1ccc(-c2cccc(OC(F)(F)F)c2)cc1`, for which, in data set [5], the kcat is 3.1 10^-3/s. Also, the kcat/Km in [6] is 370 M⁻¹ s⁻¹. For the same compound, the Km in data set [9] was determined as 8.4 µM.
Turning to `Cc1cccc(Cn2ccn3cc([N+](=O)[O-])nc3c2=O)c1`, the MIC (as a rule, the lowest concentration that inhibits growth of the organism) is no more than 0.016 µg/mL in data set [7], greater than 32 µg/mL in data set [8], 0.063 µg/mL (≈ 0.222 µM) in data set [3] and greater than 32 µg/mL in the data set with Mycobacterium avium. In addition, in [11], the “inhibition (INH)” value came to 70%.
For the compound `O=c1c2nc([N+](=O)[O-])cn2ccn1Cc1ccccc1`, the solubility turned out to be 3.2 µM (≈ 0.865 µg/mL) in data set [1] and 2.7 µM (≈ 0.73 µg/mL) in data set [2].
`Cc1ccc(Cn2ccn3cc([N+](=O)[O-])nc3c2=O)cc1`: in [5], the turnover number (kcat) was 4.3 10^-3/s. In addition, the specificity constant (kcat/Km) in data set [6] was found to be 1710 M⁻¹ s⁻¹. Further, the Km in [9] was 2.5 µM.
With `O=c1c2nc([N+](=O)[O-])cn2ccn1Cc1ccc(-c2cccc(OC(F)(F)F)c2)nc1`, the kcat in data set [5] was 1.3 10^-3/s. Besides, the kcat/Km in data set [6] was 266 M⁻¹ s⁻¹. In addition, the Km in data set [9] came out at 5 µM.
